Laboratory results from patent publication US8993752B2, “Neprilysin inhibitors” (Theravance Biopharma R&D IP, LLC, priority 2011, dated 2015).

Each compound was assayed against T1, human NEP (Homo sapiens, UniProt P08473) (assay: In vitro enzyme inhibition assay at human NEP (fluorogenic peptide substrate)). Conditions: recombinant human NEP; substrate Mca-D-Arg-Arg-Leu-Dap-(Dnp)-OH 10 μM; 37° C.; values given as ranges; read-out: pKi values at human NEP (converted).
T1 construct: purchased R&D Systems, Minneapolis, Minn; 1182-ZN
T1 sequence (P08473 whole entry): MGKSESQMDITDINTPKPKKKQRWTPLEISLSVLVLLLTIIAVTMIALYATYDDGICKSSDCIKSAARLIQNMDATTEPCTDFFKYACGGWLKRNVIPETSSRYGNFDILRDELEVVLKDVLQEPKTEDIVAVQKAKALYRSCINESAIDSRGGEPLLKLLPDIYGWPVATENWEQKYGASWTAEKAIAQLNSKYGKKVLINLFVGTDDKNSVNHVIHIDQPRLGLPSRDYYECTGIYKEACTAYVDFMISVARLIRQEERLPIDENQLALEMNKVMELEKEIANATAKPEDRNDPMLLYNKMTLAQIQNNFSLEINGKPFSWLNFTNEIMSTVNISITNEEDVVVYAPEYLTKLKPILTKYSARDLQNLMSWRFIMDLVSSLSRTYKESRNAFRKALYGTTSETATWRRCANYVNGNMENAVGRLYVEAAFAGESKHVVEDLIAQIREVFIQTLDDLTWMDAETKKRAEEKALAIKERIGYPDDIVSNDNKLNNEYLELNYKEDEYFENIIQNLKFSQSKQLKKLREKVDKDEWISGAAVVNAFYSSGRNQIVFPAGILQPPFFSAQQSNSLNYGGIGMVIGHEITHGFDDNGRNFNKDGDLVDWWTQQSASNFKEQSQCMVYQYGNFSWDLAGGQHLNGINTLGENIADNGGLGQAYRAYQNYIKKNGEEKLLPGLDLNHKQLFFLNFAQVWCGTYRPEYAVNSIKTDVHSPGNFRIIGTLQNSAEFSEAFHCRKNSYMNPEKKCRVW
Assay type: biochemical
Method in brief: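 Recombinant human NEP pre-incubated 30 min at 37 °C with compound (10 μM to 20 pM), then 10 μM Mca-D-Arg-Arg-Leu-Dap-(Dnp)-OH in 50 mM HEPES pH 7.5, 100 mM NaCl, 0.01% Tween-20, 10 μM ZnSO4. Stopped after 20 min with acetic acid, fluorescence read at 320/405 nm; Ki from nonlinear fit, reported as pKi.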

Ki, 12.6 to 100 nM:
CCCCCCn1nc(C(=O)N[C@@H](CC(=O)O)Cc2ccccc2Cl)cc1C(=O)O [Example 11-8, 5-[(R)-2-Carboxy-1-(2-chloro-benzyl)-ethylcarbamoyl]-2-hexyl-2H-pyrazole-3-carboxylic acid]
O=C(O)C[C@@H](Cc1ccccc1Cl)NC(=O)c1cc(C(=O)O)n(CC(=O)O)n1 [Example 11-9, 5-[(R)-2-Carboxy-1-(2-chloro-benzyl)-ethylcarbamoyl]-2-carboxymethyl-2H-pyrazole-3-carboxylic acid]
CC(Cn1nc(C(=O)N[C@@H](CC(=O)O)Cc2ccccc2Cl)cc1C(=O)O)C(=O)O (stereo partly drawn) [Example 11-10, 5-[(R)-2-Carboxy-1-(2-chloro-benzyl)-ethylcarbamoyl]-2-(2-carboxy-propyl)-2H-pyrazole-3-carboxylic acid]
O=C(O)C[C@@H](Cc1ccccc1Cl)NC(=O)c1cc(C(=O)O)n(Cc2ccncc2)n1 [Example 11-11, 5-[(R)-2-Carboxy-1-(2-chloro-benzyl)-ethylcarbamoyl]-2-pyridin-4-ylmethyl-2H-pyrazole-3-carboxylic acid]
O=C(O)C[C@@H](Cc1ccccc1C(F)(F)F)NC(=O)c1cc(C(=O)O)[nH]n1 [Example 12, 5-[(R)-2-Carboxy-1-(2-trifluoromethylbenzyl)-ethylcarbamoyl]-2H-pyrazole-3-carboxylic Acid]
Cc1ccccc1C[C@H](CC(=O)O)NC(=O)c1cc(C(=O)O)[nH]n1 [Example 13, 5-((R)-1-Carboxymethyl-2-o-tolyl-ethylcarbamoyl)-2H-pyrazole-3-carboxylic Acid]
